These results are taken from patent EP0109354B1, “Biocidally active mixture” (priority 1982, dated 1984).

The subject of data set [1] is Schleimbildung und Algenbewuchs. Kind of data set: Efficacy in outdoor cooling circuits, visual assessment of growth on the plates. The following applies: phosphonium compound alone, same concentration and frequency (21 ppm twice a week); stated conditionally ('würde'). From the text: Untersuchung der Wirksamkeit in Kühlkreisläufen
Die im Freien stehenden (natürliche Sonneneinstrahlung, Staubeinfall, Witterungseinflüsse) Kühlkreisläufe bestanden aus: • a) einem Kunststoffass mit einem Volumen von 113 I und einem Überlauf • b) einer Pumpe (21 1/min bei 3 m Förderhöhe) • c) einem Kühlturm mit Oregon-(Splint), Oregon-(Kernholz), Eiche-, Fichte-, Asbestzement- und PVC-Platte
Die Frischwasser-Zufuhr war so eingestellt, dass der Spritz- und Verdunstungsverlust ausgeglichen wurde und die Biocide in 24 h ungefähr 1:2 verdünnt wurden.
Die Kühlkreisläufe sind durch den natürlichen Staubeinfall und nicht durch gezielte Beimpfung infiziert.
Zur Verhinderung der Schleimbildung und des Algenwuchses wurde der Kühlkreislauf mit 21 ppm 2mal/Woche einer Lösung von 45% der Verbindung 17 und 5% der Verbindung 13 in Wasser behandelt.
Ausgewertet wurde der Versuch durch visuelle Beobachtung des Bewuchses auf den Platten.
Der unbehandelte Kreislauf zeigte schon nach 4 Wochen den ersten Algenbewuchs, die Hölzer waren nach 5 Monaten verschleimt und mit einer dicken Algenschicht überzogen. Der mit 21 ppm 2mal/Woche behandelte Kreislauf zeigte keinerlei Anzeichen von beginnender Schleimbildung und Algenbewuchs.

Read-outs that look alike come from different tables or passages of the source.

Turning to `CCCCCCCCCCCCCC[P+](CCCC)(CCCC)CCCC.[Br-]` [Verbindung 19, Tri-n-butyl-n-tetradecylphosphoniumbromid], where the note is “Bsp. 7: as Beispiel 1, P compound 19 with Sn compound 2”, the “P-Verbindung (Mol-%) Endkonzentration” value is 15,9 Mol-%. For Tri-n-butylzinnaphtenat [Verbindung 8], the “Sn-Verbindung (Mol-%) Endkonzentration” value (Bsp. 4: as Beispiel 1, Sn compound 8 in solution of P compound 17) is reported as 7,1 Mol-%. Take `CCCCCCCCCC[P+](CCCC)(CCCC)CCCC.[Cl-]` [Verbindung 18, Tri-n-butyl-n-decyl-phosphoniumchlorid]: the “P-Verbindung (Mol-%) Endkonzentration” value (Bsp. 5: as Beispiel 1, P compound 18 with Sn compound 2) was 19,2 Mol-%. Regarding `CCCCCCCCCCCC[P+](CCCC)(CCCC)CCCC.[Cl-]` [Verbindung 16, Tri-n-butyl-n-dodecyl-phosphoniumchlorid], the “P-Verbindung (Mol-%) Endkonzentration” value (Bsp. 6: as Beispiel 1, P compound 16 with Sn compound 2) is reported as 17,9 Mol-%.

Consider `CCCCCCCCCCCCCC[P+](CCCC)(CCCC)CCCC.[Cl-]` [Verbindung 17, Tri-n-butyl-tetradecyl-phosphoniumchlorid], for which the “Endkonzentration der P-Verbindung” value is, setting by setting: (Beispiel 2: with 3,8 Mol-% of Vrb. 3 dissolved) 15.3 Mol-%; (Beispiel 3: with 2,9 Mol-% of Vrb. 2 dissolved) 16,7 Mol-%. Further, the “P-Verbindung (Mol-%) Endkonzentration” value (Bsp. 4: as Beispiel 1, P compound 17 with Sn compound 8) is 13,1 Mol-%. The “Unterdrückung des Algenbewuchses” value in data set [1] is “nicht gänzlich unterdrücken”.
